Source: US20120093947A1, “METHOD OF TREATING REACTIVE AIRWAY DISEASE” (UNITED STATES DEPARTMENT OF VETERANS AFFAIRS, priority 2009, published 2012)

What was measured:
MPO = MPO (Homo sapiens, UniProt P05164); experiment: Nitration of salbutamol by MPO/H2O2/NO2−, A410; type: biochemical; design: Myeloperoxidase (MPO) from human leucocytes (lyophilized powder); purchased Axxora, LLC (San Diego, Calif.); host or cells: human leucocytes (natural source); settings: 50 μM salbutamol; for Nitrophenols, (%) MPO: 5.0 mM NaNO2, 5 mM H2O2, 0.2 U/mL MPO, pH 7.0, 30 min, ΔA410 versus control
MPO, sequence (P05164 279-745 limits assumed): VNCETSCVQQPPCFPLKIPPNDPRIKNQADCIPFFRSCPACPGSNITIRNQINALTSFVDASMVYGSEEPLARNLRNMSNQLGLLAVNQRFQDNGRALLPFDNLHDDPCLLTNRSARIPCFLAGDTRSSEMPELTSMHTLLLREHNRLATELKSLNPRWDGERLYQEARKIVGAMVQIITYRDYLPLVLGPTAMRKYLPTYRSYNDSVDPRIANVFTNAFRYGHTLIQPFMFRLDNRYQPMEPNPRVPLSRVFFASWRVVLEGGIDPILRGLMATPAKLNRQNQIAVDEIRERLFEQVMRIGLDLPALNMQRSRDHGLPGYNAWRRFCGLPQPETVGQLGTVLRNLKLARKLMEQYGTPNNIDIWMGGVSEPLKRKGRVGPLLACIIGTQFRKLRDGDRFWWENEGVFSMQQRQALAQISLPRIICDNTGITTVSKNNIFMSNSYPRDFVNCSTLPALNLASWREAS
MPO, sequence (P05164 165-273 limits assumed): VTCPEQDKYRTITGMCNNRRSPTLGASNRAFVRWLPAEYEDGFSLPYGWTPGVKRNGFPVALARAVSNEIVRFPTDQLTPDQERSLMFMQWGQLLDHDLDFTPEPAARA
Protocol: (§1) Spectrophotometric Measurements. Spectra are measured using an Agilent diode array spectrophotometer model 8453 (Agilent Technologies, Inc., Santa Clara, Calif.). Nitration of salbutamol is studied by measuring absorption spectra at designated time points following the start of the reaction. Samples are prepared in 100 mM phosphate buffers (pH 7.0). All buffers contained DTPA (100 μM) or are pretreated with Chelex-100 before use, and measurements are performed at ambient temperature of 20° C. Typically, the reaction is started by the addition of a small aliquot of H2O2 or the desired peroxidase. Time course measurements are carried out following changes in absorbance at 410 nm in 30 second intervals versus absorbance at 800 nm, where none of the compounds absorb.
(§2) We also examine the effect of methimazole on nitration catalyzed by MPO and EPO. 50 μM of salbutamol is reacted with 0.2 U/mL MPO, 5 mM NaNO2, and 2.1 mM H2O2 at pH buffer 7.0 in the presence of 0, 25, 50, and 100 μM methimazole (shown in FIG. 9, section B, traces a-d, respectively). In contrast to inhibition of nitration by LPO system, which was irreversible, inhibitory action of methimazole on MPO/H2O2/NO2^− is transitory.
(§3) The extent of nitration is expressed as a change in ΔA410 versus control (dapsone omitted) taken as 100% after 10, 30, and 60 minute reactions for LPO, MPO, and EPO nitrating systems, respectively. Results equal the means±SE of at least two measurements. In the LPO system, 100 μM of salbutamol, 3.4 mM of NaNO2, 4 mM of H2O2, and 65 nM of LPO is used. In the MPO system, 50 μM of salbutamol, 5.0 mM of NaNO2, 5 mM of H2O2, and 0.2 U/mL of MPO is used. In the EPO system, 50 μM of salbutamol, 5 mM of NaNO2, 2 mM of H2O2, and 0.075 U/mL of EPO is used. All reactions were carried out in pH 7.0 phosphate buffer containing DMSO (5% v/v). The term “nitrophenols” includes nitrosalbutamol (N-Sal) and salbutamol-derived nitrophenol (N—ArOH).

EPO = molecular target: T1, EPO (Homo sapiens, UniProt P11678); experiment: Nitration of salbutamol by EPO/H2O2/NO2−, A410; type: biochemical; settings: 50 μM salbutamol, 5 mM NaNO2, 2 mM H2O2, 0.075 U/mL EPO, pH 7.0, 60 min, ΔA410 versus control
T1 construct: purchased Calbiochem
T1 sequence (P11678 251-715 limits assumed): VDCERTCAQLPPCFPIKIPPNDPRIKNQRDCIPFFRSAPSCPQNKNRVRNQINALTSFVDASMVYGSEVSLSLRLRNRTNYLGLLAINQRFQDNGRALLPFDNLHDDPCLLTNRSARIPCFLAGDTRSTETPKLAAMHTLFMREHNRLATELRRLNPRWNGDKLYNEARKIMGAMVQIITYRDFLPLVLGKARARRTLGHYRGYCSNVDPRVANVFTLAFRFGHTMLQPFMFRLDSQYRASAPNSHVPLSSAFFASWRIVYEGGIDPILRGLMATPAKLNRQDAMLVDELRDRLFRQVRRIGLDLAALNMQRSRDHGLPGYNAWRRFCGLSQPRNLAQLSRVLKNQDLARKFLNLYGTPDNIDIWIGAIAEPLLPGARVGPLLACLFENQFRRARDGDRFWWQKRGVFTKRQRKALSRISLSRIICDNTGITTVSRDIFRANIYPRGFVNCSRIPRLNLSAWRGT
T1 sequence (P11678 140-250 limits assumed): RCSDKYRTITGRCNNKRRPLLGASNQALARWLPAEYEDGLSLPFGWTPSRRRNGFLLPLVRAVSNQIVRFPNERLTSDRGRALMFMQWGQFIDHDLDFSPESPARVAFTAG
Protocol: as §1, §2
The extent of nitration is expressed as a change in ΔA410 versus control (dapsone omitted) taken as 100% after 10, 30, and 60 minute reactions for LPO, MPO, and EPO nitrating systems, respectively. […]

LPO = molecular target: T2, LPO (Bos taurus, UniProt P80025); experiment: Nitration of salbutamol by LPO/H2O2/NO2−, A410; type: biochemical, bovine; settings: for Nitrophenols, (%) LPO: […] NaNO2, 4 mM H2O2, 65 nM LPO, pH 7.0, 10 min, ΔA410 versus control
T2 construct: Lactoperoxidase (LPO) from bovine milk (EC 1.11.1.7); purchased Sigma-Aldrich Co. (St. Louis, Mo.); host or cells: bovine milk (natural source)
Protocol: as §1
Ascorbate (AscH^−) is an effective natural antioxidant protecting airways from oxidative injury. Cross et al., (1994) Environ. Health Perspect. 102 (suppl. 10):185-191. Its concentration in the respiratory tract lining fluid is estimated to be near 100 μM (Id.). We examine the effect of AscH^− on nitration of 100 μM salbutamol by 67 nM LPO, 4 mM H2O2, and 3.5 mM of NaNO2 by measuring absorption at 410 nm. […] The duration of the lag period depends on AscH^− concentration. […] See, e.g., Reszka et al. (1999) Free Radic. Biol. & Med. 26:669-678.
As noted earlier, methimazole is an antithyroid drug, an effective inhibitor of LPO activity. 100 μM of salbutamol is reacted with 73 nM LPO, 3.5 mM NaNO2, and 4 mM H2O2 at pH buffer 7.0 in the presence of 0, 27, 55, and 109 μM methimazole (shown in FIG. 9, section A, traces a-d, respectively). Traces c and d also indicate by arrow when additional LPO is added to the system. […] In contrast to effects exerted by AscH^− or SCN^−, methimazole-dependent inhibition is permanent and is probably due to inactivation of the enzyme, since a second dose of LPO reactivates the process (FIG. 9, section A, trace c).
Dapsone, an anti-inflammatory and anti-leprotic agent, is a potent inhibitor of LPO and MPO. See, e.g., Kettle et al. (1991) Biochem. Pharmacol. 41(10):1485-1492; Bozeman et al. (1992) Biochem. Pharmacol. 44(2):553-563. 97 μM of salbutamol is reacted with 65 nM LPO, 3.4 mM NaNO2, and 4 mM H2O2 at pH buffer 7.0 in the presence of 0, 2.5, 5, 10, 50, and 100 μM dapsone (shown in FIG. 10, traces a-f, respectively). The arrows in traces d and e of FIG. 10 indicate where additional LPO is added to the system. […] Dapsone at 50 μM inhibited nitration by approximately 86%. Given the high concentrations of NaNO2 and H2O2 used in this system, dapsone appears to be a potent blocker of nitration.
as §3

SMILES | Nitrophenols, (%) MPO (MPO; dapsone 100 μM) [%] | Nitrophenols, (%) MPO (MPO; dapsone 250 μM) [%] | Nitrophenols, (%) MPO (MPO; dapsone 500 μM) [%] | Nitrophenols, (%) EPO (EPO; dapsone 140 μM) [%] | Nitrophenols, (%) EPO (EPO; dapsone 300 μM) [%] | Nitrophenols, (%) LPO (LPO; dapsone 2.5 μM, 100 μM salbutamol) [%] | Nitrophenols, (%) LPO (LPO; dapsone 5.0 μM, 100 μM salbutamol) [%] | Nitrophenols, (%) LPO (LPO; dapsone 10.0 μM, 100 μM salbutamol) [%] | inhibition at 50 µM (LPO; dapsone 50 μM, 97 μM salbutamol, 65 nM LPO, 3.4 mM NaNO2, 4 mM H2O2, pH 7.0) [%] | Nitrophenols, (%) LPO (LPO; dapsone 50.0 μM, 100 μM salbutamol) [%] | Inhibitory action on nitration of salbutamol by MPO/H2O2/NO2− (MPO; methimazole 25, 50, 100 μM, 0.2 U/mL MPO, 5 mM NaNO2, 2.1 mM H2O2, pH 7.0) | Nitration of salbutamol by LPO/H2O2/NO2− (A410 versus time) (LPO; methimazole close to 100 μM (109 μM), 100 μM salbutamol, 73 nM LPO, 3.5 mM NaNO2, 4 mM H2O2, pH 7.0)
Nc1ccc(S(=O)(=O)c2ccc(N)cc2)cc1 [Dapsone, diamino-diphenyl sulfone] | 66.3 ± 0.6 | 56.0 ± 1.3 | 44.2 ± 3.0 | 57 | 34 ± 2 | 72.8 ± 2.0 | 58.4 ± 1.4 | 45.7 ± 2.0 | ~86 | 14.0 ± 2.7 |  | 
Cn1cc[nH]c1=S [Methimazole, 1-methyl-3H-imidazole-2-thione] |  |  |  |  |  |  |  |  |  |  | transitory | completely prevents
